Data on eight compounds can be found in patent publication US20260125359A1, “HETEROARYL COMPOUNDS AS MULTI-TARGET PROTEIN KINASE INHIBITORS” (FUJIAN HAIXI PHARMACEUTICALS CO., LTD., priority 2023, published 2026).

The target of test [1] is CSF-1R (Homo sapiens, UniProt P07333). The test is described as follows: CSF-1R in vitro kinase activity assay (HTRF kinEASE TK). The format is biochemical. The conditions noted are these: for inhibition at 0.01 µM: compound 10 nM, read-out: CSF-1R inhibition rate, 10 nM; for inhibition at 0.1 µM: compound 100 nM, read-out: CSF-1R inhibition rate, 100 nM. An excerpt:
(§1) CSF-1R, PDGFR-α, KDR (VEGFR2) and KIT in vitro Kinase Activity Assay:
(§2) • ENVISION (Perkinelmer, 2104) • White 384-well MicroPlate (Cat #264706, Nunc) • HTRF kinEASE TK kit main reagents (Cat #62TKOPEC, Cisbio) • TK-biotin substrate • Streptavidin-XL665 • TK Antibody-Cryptate • 5× Enzymatic buffer (5×KB) • Staphylococcal enterotoxin B (SEB) • HTRF Detection buffer • CSF-1R (Cat #PV3249, Invitrogen) • PDGFR-α (Cat #PV3811, Invitrogen) • KDR (Cat #PV3660, Invitrogen) • KIT (Cat #08-156, Carna) • ATP 10 mM (Cat #PV3227, Invitrogen) • DTT 1 M (Cat #D5545, Sigma) • MgCl2 1 M (Cat #M8266, Sigma) • MnCl2 1 M (Cat #244589, Sigma)
(§3) Dilute Substrate-TK and ATP to 5× of the reaction concentration using 1× Kinase Buffer.
(§4) Prepare the 5× enzyme working solution using 1× Kinase Buffer.
(§5) Prepare the 4×Sa-XL665 working solution using Detection Buffer.
(§6) Dilute TK-Ab-Cryptate 100 times using Detection Buffer to prepare the working solution.
(§7) After all reagents were prepared according to the methods described above, except for the enzyme, they were equilibrated to room temperature before starting the sample addition. • a) First, 2.5% DMSO solutions were prepared separately using the pre-prepared 1× kinase buffer (DMSO concentrations that were too high could affect the reaction, so the final concentration of DMSO was controlled at 1%). Then, the corresponding 2.5% DMSO solution for the enzyme was used to dilute the test compounds. Compounds were screened with two concentrations of 100 nM and 10 nM. Except for the control wells, 4 μL of the diluted test compound solution was added to the reaction wells, and 4 μL of the pre-prepared 2.5% DMSO solution was added to the control wells. • b) 2 μL of the pre-prepared TK-biotin substrate solution at the corresponding concentration for the kinase was added to all reaction wells. • c) 2 μL of the pre-prepared enzyme solution at the corresponding concentration was added to all reaction wells except the negative control wells. For the negative control wells, 2 μL of 1× kinase buffer corresponding to the enzyme was added to make up the volume. The plate was sealed with sealing film, mixed gently, and incubated at room temperature for 10 min to allow the compounds to fully interact with the enzyme. • d) 2 μL of the ATP solution at the corresponding concentration for the enzyme was added to all reaction wells to initiate the kinase reaction. ATP concentrations and reaction times for enzyme screening are shown in Table 26 • e) Five minutes before the end of the kinase reaction, the detection solution was prepared. The detection buffer from the kit was used to prepare detection solutions for Streptavidin-XL665 and TK antibody europium cryptate (1:100) at the appropriate concentrations for the two enzymes. • f) After the kinase reaction was completed, 5 μL of the diluted Streptavidin-XL665 solution was added to all reaction wells. After mixing, the diluted TK antibody europium cryptate detection solution was immediately added. • g) The plate was sealed and mixed, incubated at room temperature for 1 hour, and the fluorescence signal was detected using the ENVISION (PerkinElmer) instrument (excitation at 320 nm, emission at 665 nm and 615 nm). The inhibition rate for each well was calculated based on the full-activity control wells and background signal wells, and the average value of the replicates was taken.
(Time-resolved FRET reads energy transfer from a long-lived donor to a nearby acceptor.)

For test [2], the target named is KIT (Homo sapiens, UniProt P10721). The test is described as follows: KIT in vitro kinase activity assay (HTRF kinEASE TK). The format is biochemical. The conditions noted are these: for inhibition at 0.01 µM: compound 10 nM, read-out: KIT inhibition rate, 10 nM; for inhibition at 0.1 µM: compound 100 nM, read-out: KIT inhibition rate, 100 nM.
KIT, sequence (P10721 26-976): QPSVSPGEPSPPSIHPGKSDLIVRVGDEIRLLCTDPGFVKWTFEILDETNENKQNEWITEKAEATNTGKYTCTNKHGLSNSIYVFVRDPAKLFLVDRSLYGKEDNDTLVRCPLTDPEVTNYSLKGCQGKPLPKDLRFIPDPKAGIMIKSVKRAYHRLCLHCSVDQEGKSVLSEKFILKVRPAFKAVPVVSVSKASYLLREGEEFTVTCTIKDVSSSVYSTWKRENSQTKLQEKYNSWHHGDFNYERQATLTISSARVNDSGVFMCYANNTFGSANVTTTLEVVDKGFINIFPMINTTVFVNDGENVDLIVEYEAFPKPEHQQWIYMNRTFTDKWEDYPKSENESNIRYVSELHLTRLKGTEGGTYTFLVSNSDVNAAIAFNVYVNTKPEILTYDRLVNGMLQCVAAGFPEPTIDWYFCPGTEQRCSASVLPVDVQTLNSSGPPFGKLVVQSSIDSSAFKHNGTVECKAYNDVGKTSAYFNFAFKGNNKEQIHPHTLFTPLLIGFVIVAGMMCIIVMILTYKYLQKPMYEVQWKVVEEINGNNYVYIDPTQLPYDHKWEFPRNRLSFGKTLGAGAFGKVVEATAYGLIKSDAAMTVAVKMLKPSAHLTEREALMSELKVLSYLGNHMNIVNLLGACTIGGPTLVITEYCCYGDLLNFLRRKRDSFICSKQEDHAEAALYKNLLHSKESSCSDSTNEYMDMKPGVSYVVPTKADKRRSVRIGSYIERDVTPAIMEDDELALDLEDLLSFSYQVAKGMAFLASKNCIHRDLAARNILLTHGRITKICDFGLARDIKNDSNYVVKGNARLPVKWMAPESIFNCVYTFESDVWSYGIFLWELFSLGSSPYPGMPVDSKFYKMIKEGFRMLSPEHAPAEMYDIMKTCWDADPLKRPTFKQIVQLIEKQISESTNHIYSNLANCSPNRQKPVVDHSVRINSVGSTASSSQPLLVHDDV
Source text: as §1, §2, §3, §4, §5, §6, §7

CSF-1R, sequence (P07333 20-972): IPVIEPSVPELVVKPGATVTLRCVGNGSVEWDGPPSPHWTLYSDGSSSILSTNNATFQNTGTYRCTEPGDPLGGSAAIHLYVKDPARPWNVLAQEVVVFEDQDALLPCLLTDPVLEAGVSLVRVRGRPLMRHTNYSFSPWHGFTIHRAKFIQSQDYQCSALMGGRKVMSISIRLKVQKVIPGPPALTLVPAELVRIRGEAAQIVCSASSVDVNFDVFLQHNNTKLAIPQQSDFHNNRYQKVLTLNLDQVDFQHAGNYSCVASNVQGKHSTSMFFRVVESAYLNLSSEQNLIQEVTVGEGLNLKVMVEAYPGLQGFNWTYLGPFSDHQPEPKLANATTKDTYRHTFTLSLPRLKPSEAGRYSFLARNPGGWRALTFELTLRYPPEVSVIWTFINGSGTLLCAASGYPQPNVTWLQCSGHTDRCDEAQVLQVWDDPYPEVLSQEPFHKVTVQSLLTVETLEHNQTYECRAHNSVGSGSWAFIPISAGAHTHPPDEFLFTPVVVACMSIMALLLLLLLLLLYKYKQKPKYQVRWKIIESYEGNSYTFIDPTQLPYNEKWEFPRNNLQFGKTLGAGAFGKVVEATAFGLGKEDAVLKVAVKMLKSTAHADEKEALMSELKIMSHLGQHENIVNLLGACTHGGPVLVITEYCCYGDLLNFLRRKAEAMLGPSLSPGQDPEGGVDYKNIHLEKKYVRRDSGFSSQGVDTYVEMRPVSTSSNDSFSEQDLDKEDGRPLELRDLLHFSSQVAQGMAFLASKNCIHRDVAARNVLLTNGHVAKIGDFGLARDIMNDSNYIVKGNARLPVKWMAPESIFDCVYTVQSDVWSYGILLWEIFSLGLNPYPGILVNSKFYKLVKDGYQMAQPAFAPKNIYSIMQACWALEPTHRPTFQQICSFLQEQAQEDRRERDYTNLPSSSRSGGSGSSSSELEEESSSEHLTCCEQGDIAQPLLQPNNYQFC

For orientation: inhibition means how much of the control response was suppressed. Take `Cc1cccc(C(=O)Nc2cccc3c2CC[C@@H]3Oc2cncc(-c3cnn(C)c3)c2)c1` [Compound 15, (S)-3-methyl-N-(1-((5-(1-methyl-1H-pyrazol-4-yl)pyridin-3-yl)oxy)-2,3-dihydro-1H-inden-4-yl)benzamide]: the inhibition at 0.01 µM in test [1] came to 49%; in test [2], 13.3%. Besides, the values for the inhibition at 0.1 µM in test [1] and in test [2] were 90.5% and 31.6%, respectively.
The like results for `Cn1cc(-c2cncc(N[C@H]3CCc4c(Nc5noc(C(C)(C)C)n5)cccc43)c2)cn1` [Compound 42o] were, in that order, 55.8%, 14.5%, 100% and 38.8%.
`CN1CCc2nc(NC(=O)c3cccc4c3CC[C@@H]4Nc3cncc(-c4cnn(C)c4)c3)sc2C1` [Compound 14ba]: the inhibition at 0.01 µM in test [1] is 42.1%; in test [2], 60.1%. For the same compound, the values for the inhibition at 0.1 µM in test [1] and in test [2] were 95.9% and 95%, respectively.
In the case of `CN1CCc2ccc(NC(=O)c3cccc4c3CC[C@@H]4Nc3cncc(-c4cnn(C)c4)c3)cc2C1` [Compound 14ap], in test [1], the inhibition at 0.01 µM was determined as 63.5% and the inhibition at 0.1 µM is 96.7%. Besides, in test [2], the inhibition at 0.01 µM was found to be 30.5% and the inhibition at 0.1 µM turned out to be 80.7%.
For `Cn1ncc2ncc(O[C@H]3CCc4c(C(=O)Nc5cncc(Cl)c5)cccc43)cc21` [Compound 76ac, (S)—N-(5-chloropyridin-3-yl)-1-((1-methyl-1H-pyrazolo[4,3-b]pyridin-6-yl)oxy)-2,3-dihydro-1H-indene-4-carboxamide] the same measures were 71.9%, 97.3%, 12.6% and 54%.
For `Cn1cc(-c2cncc(N[C@H]3CCc4c(C(=O)Nc5nn(C)c6ccccc56)cccc43)n2)cn1` [Compound 27g, (S)—N-(1-methyl-1H-indazol-3-yl)-1-((6-(1-methyl-1H-pyrazol-4-yl)pyrazin-2-yl)amino)-2,3-dihydro-1H-indene-4-carboxamide], in test [1], the inhibition at 0.01 µM was determined as 75.2% and the inhibition at 0.1 µM was found to be 95.8%. In test [2], the inhibition at 0.01 µM was found to be 89.6% and the inhibition at 0.1 µM was determined as 100%.
For `Cc1cccc(NC(=O)c2cccc3c2CC[C@@H]3Nc2cncc(-c3cnn(C)c3)c2)c1` [Compound 13, (S)-1-((5-(1-methyl-1H-pyrazol-4-yl)pyridin-3-yl)amino)-N-(m-tolyl)-2,3-dihydro-1H-indene-4-carboxamide] the same measures were 79.9%, 93.5%, 73% and 97.5%.
The like results for `Cn1cc(-c2cncc(N[C@H]3CCc4c(C(=O)Nc5cncc(Cl)c5)cccc43)c2)cn1` [Compound 14aa, (S)—N-(5-chloropyridin-3-yl)-1-((5-(1-methyl-1H-pyrazol-4-yl)pyridin-3-yl)amino)-2,3-dihydro-1H-indene-4-carboxamide] were, in that order, 74.6%, 95.3%, 61.9% and 97.3%.
